Experiment [1] has as its target T1, human muscarinic M1 receptor (Homo sapiens, UniProt P11229).
T1 construct: expressed in transfected cells
T1 sequence (P11229 1-460): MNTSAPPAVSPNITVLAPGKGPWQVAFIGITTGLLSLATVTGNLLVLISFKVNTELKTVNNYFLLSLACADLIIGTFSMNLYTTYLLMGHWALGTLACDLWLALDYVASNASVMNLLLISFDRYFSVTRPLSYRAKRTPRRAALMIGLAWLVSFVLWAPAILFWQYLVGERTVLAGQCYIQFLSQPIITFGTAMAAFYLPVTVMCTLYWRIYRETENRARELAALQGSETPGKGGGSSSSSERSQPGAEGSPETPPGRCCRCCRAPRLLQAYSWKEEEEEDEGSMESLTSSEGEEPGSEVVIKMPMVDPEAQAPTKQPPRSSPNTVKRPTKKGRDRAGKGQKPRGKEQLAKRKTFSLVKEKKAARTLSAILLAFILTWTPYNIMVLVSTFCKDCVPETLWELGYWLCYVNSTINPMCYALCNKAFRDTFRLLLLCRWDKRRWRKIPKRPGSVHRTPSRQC
Description: Alphascreen Surefire phospho-ERK1/2 functional assay, M1. The note with it: for EC50 / M1 % Emax cf. ACh: CHO cells stably expressing human M1; for EC50: phospho-ERK1/2, read-out: pEC50 M1 (converted); for Emax: CHO, read-out: M1 % Emax cf. ACh, CHO cells stably expressing human M1; for Emax / M1 % Emax cf. ACh: Emax relative to ACh. The experiment is classed as cell-based. (In general: Bead proximity is the source of the signal in Alpha formats.)

Experiment [2] deals with T2, human muscarinic M4 receptor (Homo sapiens, UniProt P08173).
T2 construct: expressed in transfected cells
T2 sequence (P08173 1-479): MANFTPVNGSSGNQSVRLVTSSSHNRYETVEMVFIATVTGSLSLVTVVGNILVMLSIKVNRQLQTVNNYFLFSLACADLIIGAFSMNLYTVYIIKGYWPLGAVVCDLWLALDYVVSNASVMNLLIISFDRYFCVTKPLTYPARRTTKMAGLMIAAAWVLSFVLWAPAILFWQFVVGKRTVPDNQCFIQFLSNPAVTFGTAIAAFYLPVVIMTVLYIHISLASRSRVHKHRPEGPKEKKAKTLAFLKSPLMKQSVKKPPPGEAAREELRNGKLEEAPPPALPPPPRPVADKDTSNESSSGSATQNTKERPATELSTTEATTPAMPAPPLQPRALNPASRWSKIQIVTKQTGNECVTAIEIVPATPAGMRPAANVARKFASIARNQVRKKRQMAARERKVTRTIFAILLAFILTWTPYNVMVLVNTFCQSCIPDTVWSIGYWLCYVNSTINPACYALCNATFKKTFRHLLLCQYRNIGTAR
In words: Alphascreen Surefire phospho-ERK1/2 functional assay, M4. The experiment is classed as cell-based. As to conditions: for EC50 / M4 % Emax cf. ACh: CHO cells stably expressing human M4; for EC50: phospho-ERK1/2, read-out: pEC50 M4 (converted); for Emax: CHO, read-out: M4 % Emax cf. ACh, CHO cells stably expressing human M4; for Emax / M4 % Emax cf. ACh: Emax relative to ACh.
Description: (§1) CHO cells stably expressing the human muscarinic M1, M2, M3 or M4 receptor were plated (25K/well) onto 96-well tissue culture plates in MEM-alpha+10% dialysed FBS. Once adhered, cells were serum-starved overnight. Agonist stimulation was performed by the addition of 5 μL agonist to the cells for 5 min (37° C.). Media was removed and 50 μL of lysis buffer added. After 15 min, a 4 μL sample was transferred to 384-well plate and 7 μL of detection mixture added. Plates were incubated for 2 h with gentle agitation in the dark and then read on a PHERAstar plate reader.
(§2) pEC50 and Emax figures were calculated from the resulting data for each receptor subtype.

For experiment [3], the target named is T3, human muscarinic M2 receptor (Homo sapiens, UniProt P08172).
T3 sequence (P08172 1-466): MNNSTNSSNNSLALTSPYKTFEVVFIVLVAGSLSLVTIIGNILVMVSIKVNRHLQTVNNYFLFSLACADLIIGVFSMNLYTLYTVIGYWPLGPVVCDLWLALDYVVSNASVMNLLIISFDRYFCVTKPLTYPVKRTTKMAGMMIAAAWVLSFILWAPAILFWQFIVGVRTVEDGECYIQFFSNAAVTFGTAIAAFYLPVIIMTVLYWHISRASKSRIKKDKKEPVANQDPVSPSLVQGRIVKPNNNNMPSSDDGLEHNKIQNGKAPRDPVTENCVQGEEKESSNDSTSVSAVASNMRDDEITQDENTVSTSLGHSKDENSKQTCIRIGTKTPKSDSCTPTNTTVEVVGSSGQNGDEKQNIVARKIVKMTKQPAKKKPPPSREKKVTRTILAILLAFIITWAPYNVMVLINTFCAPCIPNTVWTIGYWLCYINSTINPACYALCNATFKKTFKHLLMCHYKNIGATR
In words: Alphascreen Surefire phospho-ERK1/2 functional assay, M2. As to conditions: for Emax: CHO, read-out: M2 % Emax cf. ACh, CHO cells stably expressing human M2; for EC50: pEC50 M2, CHO cells stably expressing human M2.
Description: as §1, §2

For experiment [4], the target named is human muscarinic M3 receptor (Homo sapiens, UniProt P20309). Description: Alphascreen Surefire phospho-ERK1/2 functional assay, M3. The note with it: for Emax: CHO, read-out: M3 % Emax cf. ACh, CHO cells stably expressing human M3; for Emax / M3 % Emax cf. ACh: Emax relative to ACh.
Chain of human muscarinic M3 receptor (P20309 whole entry): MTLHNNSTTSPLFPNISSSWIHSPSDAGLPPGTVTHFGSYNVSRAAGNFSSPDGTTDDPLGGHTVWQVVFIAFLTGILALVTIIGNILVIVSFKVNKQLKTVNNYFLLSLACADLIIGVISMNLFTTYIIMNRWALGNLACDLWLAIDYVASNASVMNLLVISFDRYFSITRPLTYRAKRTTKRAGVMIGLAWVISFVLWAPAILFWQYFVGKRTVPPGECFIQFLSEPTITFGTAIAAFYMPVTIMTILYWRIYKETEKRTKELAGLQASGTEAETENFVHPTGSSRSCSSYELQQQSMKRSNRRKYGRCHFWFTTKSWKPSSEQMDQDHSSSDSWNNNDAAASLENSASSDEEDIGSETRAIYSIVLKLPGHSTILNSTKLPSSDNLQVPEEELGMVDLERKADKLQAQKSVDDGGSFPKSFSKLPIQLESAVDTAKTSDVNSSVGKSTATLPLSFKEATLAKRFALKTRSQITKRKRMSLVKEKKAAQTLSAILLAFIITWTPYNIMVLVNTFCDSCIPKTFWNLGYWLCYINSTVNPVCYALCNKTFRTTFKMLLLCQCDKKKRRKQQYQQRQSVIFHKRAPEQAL
Description: as §1, §2
Setting [5] is: CHO cells stably expressing human M3.

Regarding `CCCN1C(=O)CC2(CCN(C3CC4(CCN(C(=O)OCC)C4)C3)CC2)N1CC` (single isomer, unassigned) [6-9 Isomer 2], the EC50 was above 20000 nM in experiment [1], 39.8 nM in experiment [2], above 20000 nM in experiment [3] (phospho-ERK1/2) and above 20000 nM in experiment [4]. In addition, the Emax stood at 17% in experiment [1], 84% in experiment [2], 1% in experiment [3] (Emax relative to ACh) and 50% in experiment [4].
In the case of `CCOC(=O)N1CCC2(CC(N3CCC4(CC3)CC(=O)NN4CC)C2)C1` (single isomer, unassigned) [6-2 Isomer 2], the EC50 in experiment [1] was 63.1 nM; in experiment [2] it was 20 nM; in experiment [3] (phospho-ERK1/2), above 20000 nM; in experiment [4] it was above 20000 nM. The Emax in experiment [1] amounted to 109%; in experiment [2], 114%; in experiment [3] (Emax relative to ACh), 0%; in experiment [4] it was 10%.
Turning to `CCOC(=O)N1CCC2(CC(N3CCC4(CC3)CC(=O)N(CC)N4CC)C2)C1` (single isomer, unassigned) [6-8 Isomer 2], the EC50 in experiment [1] is 3160 nM; in experiment [2], 63.1 nM; in experiment [3] (phospho-ERK1/2) it was above 20000 nM; in experiment [4], above 20000 nM. Further, the Emax in experiment [1] was determined as 55%; in experiment [2], 103%; in experiment [3] (Emax relative to ACh), 10%; in experiment [4], 100%.
As for `CCOC(=O)N1CCC2(CC(N3CCC4(CC3)OC(=O)N(CCF)C4(C)C)C2)C1` (single isomer, unassigned) [4-40 Isomer 2], the EC50 in experiment [1] is 7940 nM; in experiment [2], 39.8 nM; in experiment [3] (phospho-ERK1/2), above 20000 nM; in experiment [4], above 20000 nM. Further, the Emax came to 37% in experiment [1], 109% in experiment [2], 4% in experiment [3] (Emax relative to ACh) and 6% in experiment [4].
For `CCOC(=O)N1CCC2(CC(N3CCC4(CC3)OC(=O)N3CCCC34)C2)C1` (single isomer, unassigned) [4-44 Isomer 3], the “M1 % Emax cf. ACh” value in experiment [1] is recorded as “(40) %”. For the same compound, the EC50 in experiment [1] was 200 nM; in experiment [2] it was 50.1 nM; in experiment [3] (phospho-ERK1/2), above 20000 nM; in experiment [4] it was above 20000 nM. For the same compound, the “M4 % Emax cf. ACh” value in experiment [2] was “(43) %”. Moreover, the Emax in experiment [3] (Emax relative to ACh) was 7%. In addition, the “M3 % Emax cf. ACh” value in experiment [4] (setting [5]) is “(3) %”.
As for `CCOC(=O)N1CCC2(CC(N3CCC4(CC3)OC(=O)N(CC)C4CC)C2)C1` (single isomer, unassigned) [4-22 Isomer 4], in experiment [1], the “M1 % Emax cf. ACh” value is on record as “(104) %” and the EC50 was 200 nM. Further, in experiment [2], the “M4 % Emax cf. ACh” value was “(113) %” and the EC50 is 50.1 nM. Moreover, in experiment [3] (CHO cells stably expressing human M2, Emax relative to ACh), the “M2 % Emax cf. ACh” value is reported as “(23) %”. For the same compound, the “pEC50 M2” value in experiment [3] (CHO cells stably expressing human M2, phospho-ERK1/2) is given as below 4.7. Besides, in experiment [4] (setting [5]), the “M3 % Emax cf. ACh” value was “(2) %”. In experiment [4] (CHO cells stably expressing human M3, phospho-ERK1/2), the “pEC50 M3” value is listed as below 4.7.
With `CCOC(=O)N1CCC2(CC(N3CCC4(CC3)CC(=O)NC4Cc3ccccc3)C2)C1` (single isomer, unassigned) [3-8 Isomer 2], the EC50 was 12.6 nM in experiment [1], 79.4 nM in experiment [2], above 20000 nM in experiment [3] (phospho-ERK1/2) and above 20000 nM in experiment [4]. The Emax in experiment [1] was found to be 110%; in experiment [2] it was 98%; in experiment [3] (Emax relative to ACh) it was 33%; in experiment [4] it was 53%.
As to `CCCN1C(=O)OC2(CCN(C3CC4(CCN(C(=O)OCC)C4)C3)CC2)C1(C)C` (single isomer, unassigned) [4-37 Isomer 1], the “M1 % Emax cf. ACh” value in experiment [1] is reported as “(84) %”. Also, the EC50 is 398 nM in experiment [1], 5.01 nM in experiment [2], above 20000 nM in experiment [3] (phospho-ERK1/2) and above 20000 nM in experiment [4]. The “M4 % Emax cf. ACh” value in experiment [2] is reported as “(138) %”. The Emax in experiment [3] (Emax relative to ACh) was 3%; in experiment [4], 7%.
In the case of `CCOC(=O)N1CC2(CCC(N3CCC4(CC3)CNC(=O)C4)C2)C1` (racemic) [7-1 racemic], the EC50 in experiment [1] was 5.01 nM; in experiment [2] it was above 20000 nM; in experiment [3] (phospho-ERK1/2), above 20000 nM; in experiment [4], above 20000 nM. Moreover, the Emax in experiment [1] was found to be 26%; in experiment [2], 14%; in experiment [3] (Emax relative to ACh), 0%; in experiment [4] it was 4%.
For `CCCN1C(=O)OC2(CCN(C3CC4(CCN(C(=O)OC)C4)C3)CC2)C1(C)C` (single isomer, unassigned) [4-36 Isomer 2], the EC50 in experiment [1] was 12600 nM; in experiment [2], 79.4 nM; in experiment [3] (phospho-ERK1/2) it was above 20000 nM; in experiment [4] it was above 20000 nM. For the same compound, the Emax was 35% in experiment [1], 106% in experiment [2], 52% in experiment [3] (Emax relative to ACh) and 1% in experiment [4].
In the case of `CCOC(=O)N1CCC2(CC(N3CCC4(CC3)OC(=O)N(CCOC)C4(C)C)C2)C1` (single isomer, unassigned) [4-41 Isomer 2], the EC50 is above 20000 nM in experiment [1], 100 nM in experiment [2], above 20000 nM in experiment [3] (phospho-ERK1/2) and above 20000 nM in experiment [4]. The Emax in experiment [1] is 8%; in experiment [2] it was 86%; in experiment [3] (Emax relative to ACh) it was 5%; in experiment [4], 42%.
As for `CCOC(=O)N1CCC2(CC(N3CCC4(CC3)OC(=O)N(C)C4CC)C2)C1` (single isomer, unassigned) [4-20 Isomer 3], the “M1 % Emax cf. ACh” value in experiment [1] is listed as “(97) %”. Besides, the EC50 was 158 nM in experiment [1], 31.6 nM in experiment [2], above 20000 nM in experiment [3] (phospho-ERK1/2) and above 20000 nM in experiment [4]. Besides, the “M4 % Emax cf. ACh” value in experiment [2] is given as “(59) %”. The Emax in experiment [3] (Emax relative to ACh) amounted to 10%; in experiment [4], 4%.
With `[2H]C([2H])([2H])OC(=O)N1CCC2(CC(N3CCC4(CC3)CNC(=O)O4)C2)C1` (single isomer, unassigned) [4-2 Isomer 2], the EC50 was 251 nM in experiment [1], 200 nM in experiment [2], above 20000 nM in experiment [3] (phospho-ERK1/2) and above 20000 nM in experiment [4]. The maximal effect (Emax) in experiment [1] is 113%; in experiment [2] it was 76%; in experiment [3] (Emax relative to ACh), 13%; in experiment [4] it was 42%.
As for `CCOC(=O)N1CCC2(CC(N3CCC4(CC3)CC(=O)NC4C)C2)C1` (single isomer, unassigned) [3-3 Isomer 2], the EC50 in experiment [1] is 158 nM; in experiment [2] it was 200 nM; in experiment [3] (phospho-ERK1/2), above 20000 nM; in experiment [4], above 20000 nM. The maximum response (Emax) in experiment [1] was 97%; in experiment [2] it was 81%; in experiment [3] (Emax relative to ACh), 2%; in experiment [4], 7%.
As to `CCOC(=O)N1CC2(CCC(N3CCC4(CC3)OC(=O)N(CC)C4(C)C)C2)C1` (racemic) [8-4 racemic], the EC50 in experiment [1] is 200 nM; in experiment [2] it was 7.94 nM; in experiment [3] (phospho-ERK1/2), above 20000 nM; in experiment [4], above 20000 nM. The Emax in experiment [1] was 63%; in experiment [2], 91%; in experiment [3] (Emax relative to ACh), 4%; in experiment [4], 1%.

The term Emax denotes the size of the effect at its maximum, as opposed to the concentration needed.

For the origin of these results see patent US10167284B2, “Spirocyclic compounds as agonists of the muscarinic M1 receptor and/or M4 receptor” (HEPTARES THERAPEUTICS LIMITED, priority 2015, dated 2019).
